# According to BindingDB's records for doi:10.1016/j.bmcl.2006.12.014 (The Genomics Institute of The Novartis Research Foundation, 2007):
# pIC50: −log10 of the molar value.
# Target: Cathepsin Z (Homo sapiens) (UniProt Q9UBR2)
# Experiment: Inhibition of human recombinant cathepsin X
# Chain of Cathepsin Z (Homo sapiens) (Q9UBR2 whole entry, looked up): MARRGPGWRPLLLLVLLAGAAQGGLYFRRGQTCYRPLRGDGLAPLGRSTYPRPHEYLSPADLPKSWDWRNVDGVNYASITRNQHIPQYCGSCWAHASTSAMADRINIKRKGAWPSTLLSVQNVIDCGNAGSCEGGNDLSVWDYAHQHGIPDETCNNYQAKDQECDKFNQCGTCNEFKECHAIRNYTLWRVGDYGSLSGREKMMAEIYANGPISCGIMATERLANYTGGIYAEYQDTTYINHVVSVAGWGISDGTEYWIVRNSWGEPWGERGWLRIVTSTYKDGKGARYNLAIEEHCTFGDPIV
row,pIC50,SMILES
1,6.26,"Cc1cccc(O[C@H]2CCN3C[C@@H]2OC3=O)c1C (racemic) [rac-trans4-(2,3-dimethylphenoxy)-6-oxa-1-aza-bicyclo[3.2.1]octan-7-one]"
2,6.71,"Cc1cccc(O[C@H]2CCN3C[C@H]2OC3=O)c1C (relative stereo) [cis-4-(2,3-dimethylphenoxy)-6-oxa-1-aza-bicyclo[3.2.1]octan-7-one]"
3,< 5.00,"O=C1O[C@H]2CN1CC[C@@H]2Br [(1S,2S)-2-bromo-7-oxa-5-aza-bicyclo[3.2.1]octan-6-one]"

# Target: Cathepsin Z (Homo sapiens) (UniProt Q9UBR2)
# Experiment: Inhibition of human recombinant cathepsin X
# Remark: another data set of the same source
row,pIC50,SMILES
1,6.26,"O=C1O[C@@H]2CN1CC[C@@H]2OCc1ccccc1 [(1R,2S)-2-(benzyloxy)-7-oxa-5-aza-bicyclo[3.2.1]octan-6-one]"
2,6.49,"O=C1O[C@@H]2CN1CC[C@@H]2Oc1ccccc1 [(1R,2S)-2-phenoxy-7-oxa-5-aza-bicyclo[3.2.1]octan-6-one]"
3,5.15,"S=C1O[C@@H]2CN1CC[C@@H]2Oc1ccccc1 [(1R,2S)-2-phenoxy-7-oxa-5-aza-bicyclo[3.2.1]octane-6-thione]"

row,SMILES,pIC50
1,"CC(C)CO[C@H]1CCN2C[C@H]1OC2=O [(1R,2S)-2-isobutoxy-7-oxa-5-aza-bicyclo[3.2.1]octan-6-one]",5.96
